# Test results published in patent publication US20130109049A1, “Method of Establishing a Fungal Nail Infection” (NOVABIOTICS LIMITED, priority 2009, published 2013).
# Test system: Trichophyton rubrum strain NCPF0118
# Assay: Ex vivo human nail fragment model, treatment of established infection (cfu recovered)
# Format: cell-based
# Description: For antifungal efficacy studies with human toe nails, a solution of 50% (w/v) PEG 8000 (Sigma-Aldrich; Cat No P2139) was prepared by autoclaving and then diluting with sterile 50% (w/v) urea solution (Sigma-Aldrich; Cat No 51457). This solution was mixed thoroughly by vortexing and allowed to stabilise at 50° C. for up to 2 h. After stabilisation, the temperature was allowed to drop to below 40° C. and a concentrated, filter-sterilised solution of Novexatin® (NP213), dissolved in deionised water was added. Final concentrations of PEG 8000 of 50% (w/v), urea of 0-20% (w/v) and Novexatin® (NP213) of 0-10% (w/v) were used in the experiments described below.
# On arrival, the cultures were transferred to a Petri dish containing sterile Sabouraud Dextrose agar (Sigma-Aldrich; Cat No 84088, or equivalent) and grown for up to 7 d at 30° C. The resulting growth was scraped off and re-suspended in Sabouraud's liquid medium (Oxoid; Cat No CM 147, or equivalent) containing […] dimethyl sulfoxide (DMSO) as cryoprotectant to create a culture stock. The fungus was stored in 0.5 ml aliquots in 2 ml screw-capped polypropylene vials (Cryovials) at −80° C. Seven days prior to experimental use, 50 μl of the culture stock was used to inoculate a slope of Potato Dextrose agar (Merck; Cat No VM556130 609, or equivalent), which was incubated at 30° C. for up to 7 d. The surface of the resulting growth was gently perturbed in 3 ml of sterile distilled/deionised water. After filtration through 2 layers of sterile surgical gauze to remove debris and larger clumps of biomass, the absorbance of the resultant spore suspension was measured at 530 nm, then adjusted to the 0.5 MacFarland standard (OD approx. 0.15)^2.
# Human toe nails were obtained from a podiatrist in Aberdeen following a successful application to the Grampian Local Research Ethics Committee. […] Large toe nails were cut into 4 pieces, each approximately 1 cm^2 in area, using nail clippers. Nails of normal thickness (≦2 mm) were chosen. The 4 fragments cut from each single nail were placed in quadrants marked on Petri-dishes containing phosphate buffered saline rendered solid with 1.2% (w/v) Technical Agar No. 3 (Oxoid; Cat No LP0013, or equivalent), subsequently referred to as PBS agar. The nail fragments were of irregular shape, so to ensure that each nail received the appropriate amount of the treatment solutions, the surface area was measured by photographing the nails over graph paper and determining the number of 1mm^2 squares covered by each nail. The thickness of the nails was measured with a micrometer and nails distributed among treatment groups, to avoid nail thickness providing an additional experimental variable.
# Twenty four nail fragments from 6 whole large toenails were each inoculated with 10 μl of a spore suspension of T. rubrum NCPF0118 which was prepared as described above. The inoculum was applied to the ventral side of the nail (i.e. the side next to the skin in situ). The nails were incubated for 7 d at 30° C. to allow the fungus to infect the nail tissue. After this pre-incubation period, 12 of the fragments were assigned to each of 2 different treatment protocols, involving daily treatment with 2 different vehicle solutions, each containing a control and 3 different concentrations of Novexatin® (NP213). These vehicle solutions were: 50% (w/v) PEG 8000, and 50% (w/v) PEG 8000 plus 20% (w/v) urea. The concentrations of Novexatin® (NP213) studied were 0%, 1%, 5% and 10% (w/v). The solutions were applied at a volume of 10 μl/cm^2, corrected for the surface area of the different nail fragments as described above. The applied solution was spread over the dorsal side of the nail, to mimic the intended clinical treatment and the ventral side of the nail rested on the agar surface. Each time the nails were treated, they were transferred to a new sterile Petri dish containing PBS agar to minimise any build-up of fungal growth on the agar. Nail fragments were treated daily for 28 days. […]
# [1] = Experiment 1, 5% (w/v), absence of urea, daily 28 days
substance,measurement,setting,value
7 to 200-mer (SEQ ID NO: 3) polyarginine [Novexatin® (NP213)],killing of T. rubrum NCPF0118 on nail fragments (dose dependence),"Experiment 1, 0%, 1%, 5%, 10% (w/v) in 50% PEG 8000 with or without 20% urea, daily for 28 days",dose-dependent
same,reduction in fungal survival,"Experiment 1, 1% (w/v), daily 28 days",approximately 1 log10
same,"fungi isolated with 20% (w/v) urea added to the vehicle, versus vehicle alone","Experiment 1, 1% (w/v), not statistically significant",fewer fungi than in vehicle alone
same,fungal colonies isolated from nail fragments,"Experiment 1, 5% (w/v) with 20% (w/v) urea in vehicle, daily 28 days",no colonies were isolated
same,decrease in survival of the fungus compared to controls,[1],approximately 3 log10
same,fungal colonies isolated from nail fragments,[1],a small number of colonies were detected
same,recoverable fungal growth after treatment,"Experiment 5, 10% (w/v), approximately 100×MIC100, 14 d or 28 d, daily",no recoverable fungal growth
